biological target: T1, human PAD4 (Homo sapiens, UniProt Q9UM07); test: In vitro PAD4 BAEE biochemical assay; conditions: human PAD4, BAEE substrate; 5 nM PAD4, 2 mM calcium chloride, 3 mM BAEE; geometric mean of multiple experiments
T1 construct: human PAD4 (NM_012387), A2P663, was PCR amplified; His-SUMO (N, cleaved yes); made in house; host or cells: E. coli BL21(DE3)
Method in brief: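 Ammonia generated from BAEE serves as the readout, measured by o-phthalaldehyde after EDTA termination. Final conditions: 5 nM human PAD4 (SUMO tag cleaved), 2 mM CaCl2, 3 mM BAEE, pH 7.6 MOPS buffer, 25 °C for 2 h following a 30-min compound preincubation.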

T1 sequence (Q9UM07 2-663): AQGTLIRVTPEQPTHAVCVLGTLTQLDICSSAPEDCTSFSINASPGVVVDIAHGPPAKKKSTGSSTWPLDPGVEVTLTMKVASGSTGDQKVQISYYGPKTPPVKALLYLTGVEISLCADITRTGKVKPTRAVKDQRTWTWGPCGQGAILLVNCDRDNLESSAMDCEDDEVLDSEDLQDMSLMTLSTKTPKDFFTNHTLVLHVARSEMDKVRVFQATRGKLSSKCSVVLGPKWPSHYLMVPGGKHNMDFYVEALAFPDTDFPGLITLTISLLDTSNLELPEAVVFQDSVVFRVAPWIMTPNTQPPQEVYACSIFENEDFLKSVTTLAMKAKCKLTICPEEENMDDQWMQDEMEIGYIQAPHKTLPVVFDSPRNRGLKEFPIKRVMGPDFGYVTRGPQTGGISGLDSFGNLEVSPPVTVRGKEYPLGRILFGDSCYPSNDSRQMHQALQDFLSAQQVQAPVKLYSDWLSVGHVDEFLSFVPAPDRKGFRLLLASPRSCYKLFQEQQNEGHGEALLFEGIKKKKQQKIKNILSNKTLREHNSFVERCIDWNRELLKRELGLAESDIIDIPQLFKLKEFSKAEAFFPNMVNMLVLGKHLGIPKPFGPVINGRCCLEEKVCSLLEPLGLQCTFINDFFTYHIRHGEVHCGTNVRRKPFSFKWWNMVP

Row | SMILES | IC50 [nM]
1 | COc1cc(C(=O)N2[C@H]3CC[C@@H]2[C@H](N)C3)cc2nc(-c3cc4ccc([C@@H](C)NC(=O)C5(C)COC5)nc4n3CC3CC3)c(C3CC3)n12 [Example 109, ~{N}-[(1~{R})-1-[2-[7-[(1~{R},2~{R},4~{S})-2-amino-7-azabicyclo[2.2.1]heptane-7-carbonyl]-3-cyclopropyl-5-methoxyimidazo [1,2-a]pyridin-2-yl]-1-(cyclopropylmethyl)pyrrolo [2,3-b]pyridin-6-yl]ethyl]-3-methyloxetane-3-carboxamide] | 31.7
2 | CCCO[C@@H]1CCN(C(=O)c2cc(OC)n3c(C)c(-c4cc5ccc([C@@H](C)NC(=O)c6ccccc6)nc5n4CC4CC4)nc3c2)C[C@@H]1N [Example 111, ~{N}-[(1~{R})-1-[2-[7-[(3~{S},4~{R})-3-amino-4-propoxypiperidine-1-carbonyl]-5-methoxy-3-methylimidazo[1,2-a]pyridin-2-yl]-1-(cyclopropylmethyl)pyrrolo [2,3-b]pyridin-6-yl]ethyl] benzamide] | 305
3 | CCO[C@@H]1CCN(C(=O)c2cc(OC)n3c(C)c(-c4cc5ccc([C@@H](C)NC(=O)c6ccccc6)nc5n4CC4CC4)nc3c2)C[C@@H]1N [Example 112, ~{N}-[(1~{R})-1-[2-[7-[(3~{S},4~{R})-3-amino-4-ethoxypiperidine-1-carbonyl]-5-methoxy-3-methylimidazo[1,2-a]pyridin-2-yl]-1-(cyclopropylmethyl)pyrrolo [2,3-b]pyridin-6-yl]ethyl]benzamide] | 307
4 | COc1cc(C(=O)N2CC[C@@H](OC)[C@@H](N)C2)cc2nc(-c3cc4ccc([C@@H](C)NC(=O)c5ccccc5)nc4n3CC3CC3)c(C)n12 [Example 114, ~{N}-[(1~{R})-1-[2-[7-[(3~{S},4~{R})-3-amino-4-methoxypiperidine-1-carbonyl]-5-methoxy-3-methylimidazo [1,2-a]pyridin-2-yl]-1-(cyclopropylmethyl)pyrrolo [2,3-b]pyridin-6-yl]ethyl]benzamide] | 220
5 | COc1cc(C(=O)N2CC[C@@H](O)[C@@H](N)C2)cc2nc(-c3cc4ccc([C@@H](C)NC(=O)c5ccccc5)nc4n3CC3CC3)c(C)n12 [Example 115] | 177
6 | COc1cc(C(=O)N2[C@H]3CC[C@@H]2[C@H](N)C3)cc2nc(-c3cc4ccc([C@@H](C)NC(=O)c5cnn(C)c5)nc4n3CC3CC3)c(C)n12 [Example 116, ~{N}-[(1~{R})-1-[2-[7-[(1~{R},2~{R},4~{S})-2-amino-7-azabicyclo[2.2.1]heptane-7-carbonyl]-5-methoxy-3-methylimidazo [1,2-a]pyridin-2-yl]-1-(cyclopropylmethyl)pyrrolo [2,3-b]pyridin-6-yl]ethyl]-1-methylpyrazole-4-carboxamide] | 34.8
7 | COc1cc(C(=O)N2[C@H]3CC[C@@H]2[C@H](N)C3)cc2nc(-c3cc4ccc([C@@H](C)NC(=O)c5cnco5)nc4n3CC3CC3)c(C)n12 [Example 117, ~{N}-[(1~{R})-1-[2-[7-[(1~{R},2~{R},4~{S})-2-amino-7-azabicyclo[2.2.1]heptane-7-carbonyl]-5-methoxy-3-methylimidazo [1,2-a]pyridin-2-yl]-1-(cyclopropylmethyl)pyrrolo [2,3-b]pyridin-6-yl]ethyl]-1,3-oxazole-5-carboxamide] | 33.4
8 | COc1cc(C(=O)N2[C@H]3CC[C@@H]2[C@H](N)C3)cc2nc(-c3cc4ccc([C@@H](C)NC(=O)c5ncccn5)nc4n3CC3CC3)c(C)n12 [Example 118, ~{N}-[(1~{R})-1-[2-[7-[(1~{R},2~{R},4~{S})-2-amino-7-azabicyclo[2.2.1]heptane-7-carbonyl]-5-methoxy-3-methylimidazo [1,2-a]pyridin-2-yl]-1-(cyclopropylmethyl)pyrrolo [2,3-b]pyridin-6-yl]ethyl]pyrimidine-2-carboxamide] | 63.7
9 | COc1cc(C(=O)N2[C@H]3CC[C@@H]2[C@H](N)C3)cc2nc(-c3cc4ccc([C@@H](C)NC(=O)c5ccncc5)nc4n3CC3CC3)c(C)n12 [Example 119, ~{N}-[(1~{R})-1-[2-[7-[(1~{R},2~{R},4~{S})-2-amino-7-azabicyclo[2.2.1]heptane-7-carbonyl]-5-methoxy-3-methylimidazo [1,2-a]pyridin-2-yl]-1-(cyclopropylmethyl)pyrrolo [2,3-b]pyridin-6-yl]ethyl] pyridine-4-carboxamide] | 34.5
10 | COc1cc(C(=O)N2[C@H]3CC[C@@H]2[C@H](N)C3)cc2nc(-c3cc4ccc([C@@H](C)NC(=O)c5cccnc5)nc4n3CC3CC3)c(C)n12 [Example 120, ~{N}-[(1~{R})-1-[2-[7-[(1~{R},2~{R},4~{S})-2-amino-7-azabicyclo[2.2.1]heptane-7-carbonyl]-5-methoxy-3-methylimidazo [1,2-a]pyridin-2-yl]-1-(cyclopropylmethyl)pyrrolo [2,3-b]pyridin-6-yl]ethyl]pyridine-3-carboxamide] | 30.1
11 | COc1cc(C(=O)N2[C@H]3CC[C@@H]2[C@H](N)C3)cc2nc(-c3cc4ccc([C@@H](C)NC(=O)c5ccccc5C)nc4n3CC3CC3)c(C)n12 [Example 121, ~{N}-[(1~{R})-1-[2-[7-[(1~{R},2~{R},4~{S})-2-amino-7-azabicyclo[2.2.1]heptane-7-carbonyl]-5-methoxy-3-methylimidazo [1,2-a]pyridin-2-yl]-1-(cyclopropylmethyl)pyrrolo [2,3-b]pyridin-6-yl]ethyl]-2-methylbenzamide] | 108
12 | COc1cc(C(=O)N2[C@H]3CC[C@@H]2[C@H](N)C3)cc2nc(-c3cc4ccc([C@@H](C)NC(=O)c5cccc(C#N)c5)nc4n3CC3CC3)c(C)n12 [Example 122, ~{N}-[(1~{R})-1-[2-[7-[(1~{R},2~{R},4~{S})-2-amino-7-azabicyclo[2.2.1]heptane-7-carbonyl]-5-methoxy-3-methylimidazo [1,2-a]pyridin-2-yl]-1-(cyclopropylmethyl)pyrrolo [2,3-b]pyridin-6-yl]ethyl]-3-cyanobenzamide] | 78.5
13 | COc1cc(C(=O)N2[C@H]3CC[C@@H]2[C@H](N)C3)cc2nc(-c3cc4ccc([C@@H](C)NC(=O)c5ccc(C#N)cc5)nc4n3CC3CC3)c(C)n12 [Example 123, ~{N}-[(1~{R})-1-[2-[7-[(1~{R},2~{R},4~{S})-2-amino-7-azabicyclo[2.2.1]heptane-7-carbonyl]-5-methoxy-3-methylimidazo [1,2-a]pyridin-2-yl]-1-(cyclopropylmethyl)pyrrolo [2,3-b]pyridin-6-yl]ethyl]-4-cyanobenzamide] | 79
14 | COc1cc(C(=O)N2CCCC(C)(N)C2)cc2nc(-c3cc4ccc([C@@H](C)NC(=O)C56CC(F)(C5)C6)nc4n3CC3CC3)c(C3CC3)n12 (stereo partly shown) [Example 124, ~{N}-[(1~{R})-1-[2-[7-(3-amino-3-methylpiperidine-1-carbonyl)-3-cyclopropyl-5-methoxyimidazo [1,2-a]pyridin-2-yl]-1-(cyclopropylmethyl)pyrrolo [2,3-b]pyridin-6-yl]ethyl]-3-fluorobicyclo[1.1.1]pentane-1-carboxamide] | 13000
15 | COc1cc(C(=O)N2CCC[C@@H](N)C2)cc2nc(-c3cc4ccc([C@@H](C)NC(=O)C56CC(F)(C5)C6)nc4n3CC3CC3)c(C)n12 [Example 125, ~{N}-[(1~{R})-1-[2-[7-[(3~{R})-3-aminopiperidine-1-carbonyl]-5-methoxy-3-methylimidazo[1,2-a]pyridin-2-yl]-1-(cyclopropylmethyl)pyrrolo[2,3-b]pyridin-6-yl]ethyl]-3-fluorobicyclo[1.1.1] pentane-1-carboxamide] | 78.7
16 | COc1cc(C(=O)N2[C@H]3CC[C@@H]2[C@H](N)C3)cc2nc(-c3cc4ccc([C@@H](C)NC(=O)C(C)(C)O)nc4n3CC3CC3)c(C)n12 [Example 126, ~{N}-[(1~{R})-1-[2-[7-[(1~{R},2~{R},4~{S})-2-amino-7-azabicyclo[2.2.1]heptane-7-carbonyl]-5-methoxy-3-methylimidazo [1,2-a]pyridin-2-yl]-1-(cyclopropylmethyl)pyrrolo [2,3-b]pyridin-6-yl]ethyl]-2-hydroxy-2-methylpropanamide] | 45.9
17 | COc1cc(C(=O)N2CCC[C@@H](N)C2)cc2nc(-c3cc4ccc([C@@H](C)NC(=O)C(C)(C)O)nc4n3CC3CC3)c(C)n12 [Example 127, ~{N}-[(1~{R})-1-[2-[7-[(3~{R})-3-aminopiperidine-1-carbonyl]-5-methoxy-3-methylimidazo [1,2-a]pyridin-2-yl]-1-(cyclopropylmethyl)pyrrolo [2,3-b]pyridin-6-yl]ethyl]-2-hydroxy-2-methylpropanamide] | 76.2
18 | COc1cc(C(=O)N2[C@H]3CC[C@@H]2[C@H](N)C3)cc2nc(-c3cc4ccc([C@@H](C)NC(=O)C5(CO)CC5)nc4n3CC3CC3)c(C)n12 [Example 128, ~{N}-[(1~{R})-1-[2-[7-[(1~{R},2~{R},4~{S})-2-amino-7-azabicyclo[2.2.1]heptane-7-carbonyl]-5-methoxy-3-methylimidazo [1,2-a]pyridin-2-yl]-1-(cyclopropylmethyl)pyrrolo [2,3-b]pyridin-6-yl]ethyl]-1-(hydroxymethyl) cyclopropane-1-carboxamide] | 35.8
19 | COc1cc(C(=O)N2CCC[C@@H](N)C2)cc2nc(-c3cc4ccc([C@@H](C)NC(=O)C5(CO)CC5)nc4n3CC3CC3)c(C)n12 [Example 129, ~{N}-[(1~{R})-1-[2-[7-[(3~{R})-3-aminopiperidine-1-carbonyl]-5-methoxy-3-methylimidazo [1,2-a]pyridin-2-yl]-1-(cyclopropylmethyl)pyrrolo [2,3-b]pyridin-6-yl]ethyl]-1-(hydroxymethyl) cyclopropane-1-carboxamide] | 56.3

From patent US12240862B2, “Inhibitors of peptidylarginine deiminases” (Gilead Sciences, Inc., priority 2020, dated 2025)
